Source: publication PMC3902015 (Journal of Alzheimer's disease : JAD, 2012)
“Also recorded” adds a separate entry of the source. Each block holds one molecule with its values, some of them ahead of it.

What was measured:
[1] = tested on: MRP1; experiment: Western blot of MRP1 in brain homogenate; assay type: in vivo, C57BL/6 wild-type mice; conditions: treated mice vs control
[2] = Body weight during in vivo treatment; design: species or system C57BL/6 wild-type male mice; conditions: caffeine 40 mg/kg ip once daily, treatment limited to 2 weeks
[3] = tested on: P-gp; experiment: Immunofluorescence staining of P-gp in isolated brain microvessels; design: species or system C57BL/6 wild-type mice; conditions: mouse, in vivo
[4] = tested on: LRP1; experiment: Western blot of LRP1 protein in bEnd3 cells after drug treatment; conditions: 50 µM, 72 h, vs control (DMSO)
[5] = Drug concentration in plasma and brain homogenate; assay type: in vivo, C57BL/6 wild-type male mice; conditions: for concentration at 3 h: brain homogenate
[6] = cited from earlier work
[7] = tested on: RAGE; experiment: Western blot of RAGE in isolated brain microvessels; assay type: in vivo, C57BL/6 wild-type mice; conditions: treated mice vs control
[8] = tested on: LRP1; experiment: RT-PCR of LRP1 mRNA in bEnd3 cells; assay type: cell-based, mouse; conditions: 50 µM, 72 h, vs control
[9] = tested on: LRP1; experiment: Immunofluorescence staining of LRP1 in isolated brain microvessels; design: species or system C57BL/6 wild-type mice; conditions: mouse, in vivo
[10] = tested on: cognitive decline; conditions: mild to moderate AD patients, 3-month course of 300 mg/day; cited from earlier work
[11] = tested on: MDR1; conditions: bEnd3 cells, 50 µM, 72 h, vs control
[12] = after administration of 6.4 mg/kg dose; cited from earlier work
[13] = tested on: P-gp; conditions: bEnd3 cells, 50 µM, 72 h, vs control (DMSO)
[14] = target: P-gp (Mus musculus, UniProt P21447); experiment: BEI% of 125I-Aβ40 with P-gp inhibition by intracerebral valspodar; assay type: in vivo, C57BL/6 mice; conditions: for BEI% of 125I-Aβ40 after valspodar pretreatment: valspodar 24 ng/0.5 µl
Chain of P-gp (Mus musculus, UniProt P21447) (P21447 whole entry): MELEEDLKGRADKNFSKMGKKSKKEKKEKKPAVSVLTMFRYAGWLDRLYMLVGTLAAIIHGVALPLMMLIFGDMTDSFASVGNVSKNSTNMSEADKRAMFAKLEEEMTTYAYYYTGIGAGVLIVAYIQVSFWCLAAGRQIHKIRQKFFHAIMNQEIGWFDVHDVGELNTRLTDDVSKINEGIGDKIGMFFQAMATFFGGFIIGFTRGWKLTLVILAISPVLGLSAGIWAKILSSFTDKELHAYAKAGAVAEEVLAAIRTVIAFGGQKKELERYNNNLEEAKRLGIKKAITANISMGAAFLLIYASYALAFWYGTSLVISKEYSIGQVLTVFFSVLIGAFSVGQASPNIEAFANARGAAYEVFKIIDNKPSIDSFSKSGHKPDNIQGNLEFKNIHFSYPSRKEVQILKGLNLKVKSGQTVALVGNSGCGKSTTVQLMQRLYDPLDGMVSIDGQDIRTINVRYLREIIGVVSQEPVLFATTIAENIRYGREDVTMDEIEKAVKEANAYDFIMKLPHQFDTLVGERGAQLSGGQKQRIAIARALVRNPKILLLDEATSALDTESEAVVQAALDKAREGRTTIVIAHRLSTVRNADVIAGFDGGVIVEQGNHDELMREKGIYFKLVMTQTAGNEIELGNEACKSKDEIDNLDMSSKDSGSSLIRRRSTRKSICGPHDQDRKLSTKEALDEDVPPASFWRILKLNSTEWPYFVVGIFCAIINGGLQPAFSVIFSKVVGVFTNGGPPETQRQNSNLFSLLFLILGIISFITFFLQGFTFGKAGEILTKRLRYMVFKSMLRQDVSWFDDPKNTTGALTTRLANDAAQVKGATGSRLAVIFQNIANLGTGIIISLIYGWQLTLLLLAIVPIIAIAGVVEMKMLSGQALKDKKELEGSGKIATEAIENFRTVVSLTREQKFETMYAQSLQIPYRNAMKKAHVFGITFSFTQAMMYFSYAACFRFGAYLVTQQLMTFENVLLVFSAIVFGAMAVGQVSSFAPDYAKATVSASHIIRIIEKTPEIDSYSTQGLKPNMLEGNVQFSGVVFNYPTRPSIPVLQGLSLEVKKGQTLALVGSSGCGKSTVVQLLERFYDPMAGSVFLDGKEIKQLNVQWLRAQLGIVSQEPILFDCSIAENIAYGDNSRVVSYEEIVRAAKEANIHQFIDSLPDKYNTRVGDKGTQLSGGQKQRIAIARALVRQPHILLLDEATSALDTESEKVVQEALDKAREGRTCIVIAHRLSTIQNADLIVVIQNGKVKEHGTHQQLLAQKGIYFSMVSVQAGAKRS

[15] = target: LRP1 (Mus musculus, UniProt Q91ZX7); experiment: BEI% of 125I-Aβ40 with LRP1 inhibition by intracerebral RAP; assay type: in vivo, C57BL/6 mice; conditions: for BEI% of 125I-Aβ40 after RAP pretreatment: RAP 19.5 ng/0.5 µl

Molecule: Cn1c(=O)c2c(ncn2C)n(C)c1=O [Caffeine]
effect on brain homogenate's MRP1 expression (western blot) [1]: did not alter; also recorded: Insignificant differences
body weight observation during treatment [2]: weight loss
increase in P-gp expression in brain microvessels (immunofluorescence) [3]: 2.3 fold
increase in LRP1 level (densitometric analysis of western blot) [4]: but not caffeine
Drug concentration Plasma ([5]; 3 h after last ip dose (rifampicin 20 mg/kg, caffeine 40 mg/kg daily), n = 12): 20 ± 5.4 µg/mL
Kp at 3 h ([5]; male, C57BL/6, mouse, brain homogenate / plasma, ip): 0.5
concentration at 3 h ([5]; male, C57BL/6, mouse, ip): 11.8 ± 3.6 µg/mL
plasma protein binding [6]: 10–37%
effect on microvessels' RAGE expression (western blot) [7]: did not alter; also recorded: Insignificant differences
increase in mRNA level of LRP1 (RT-PCR) [8]: did not show any effect
increase in LRP1 expression in brain microvessels (immunofluorescence) [9]: 1.2 fold

Molecule: CO[C@H]1/C=C/O[C@@]2(C)Oc3c(C)c(O)c4c(O)c(c(/C=N/N5CCN(C)CC5)c(O)c4c3C2=O)NC(=O)/C(C)=C\C=C\[C@H](C)[C@H](O)[C@@H](C)[C@@H](O)[C@@H](C)[C@H](OC(C)=O)[C@@H]1C [Rifampicin]
effect on rate of cognitive decline [10]: attenuated the rate of cognitive decline
increase in mRNA of MDR1 (RT-PCR) [11]: 1.5 fold
free (unbound) plasma level in humans [12]: 1.08 µg/mL
increase in LRP1 level (densitometric analysis of western blot) [4]: 1.2 fold
concentration at 3 h ([5]; male, C57BL/6, mouse, ip): 0.15 ± 0.08 µg/mL
increase in mRNA level of LRP1 (RT-PCR) [8]: 1.4 fold
increase in P-gp level (densitometric analysis of western blot) [13]: 1.45 fold

reduction in BEI% values by valspodar ([14]; caffeine-treated mice): ~32%
BEI% of 125I-Aβ40 after valspodar pretreatment ([14]; caffeine-treated mice, without valspodar 80.4±[…]): 48.1 ±2.3%
reduction in BEI% values by valspodar ([14]; rifampicin-treated mice): ~25%
BEI% of 125I-Aβ40 after valspodar pretreatment ([14]; rifampicin-treated mice, without valspodar 82.4±[…]): 57.5± 1.1%
Molecule: C/C=C/C[C@@H](C)C(=O)[C@H]1C(=O)N[C@@H](C(C)C)C(=O)N(C)CC(=O)N(C)[C@@H](CC(C)C)C(=O)N[C@@H](C(C)C)C(=O)N(C)[C@@H](CC(C)C)C(=O)N[C@@H](C)C(=O)N[C@H](C)C(=O)N(C)[C@@H](CC(C)C)C(=O)N(C)[C@@H](CC(C)C)C(=O)N(C)[C@@H](C(C)C)C(=O)N1C [Valspodar]

BEI% of 125I-Aβ40 after RAP pretreatment ([15]; caffeine-treated mice, without RAP 80.4 ±[…]): 76.9 ±2.5%
reduction in BEI% values by RAP ([15]; control mice): about 33%
reduction in BEI% values by RAP ([15]; rifampicin-treated mice): ~13%
BEI% of 125I-Aβ40 after RAP pretreatment ([15]; rifampicin-treated mice, without RAP 82.4±[…]): 69.7 ±3.3%
Molecule: RAP: human receptor associated protein, a specific LRP1 inhibitor
